Assay results taken from US9150571B2, “Crystalline forms of fused amino pyridines as HSP90 inhibitors” (Debiopharm International SA, priority 2011, dated 2015).
Converted amounts (≈) assume the structure as drawn. Blank lines part the entries; values can stand above or below the compound they belong to.

Key:
Assay type in all cases: physicochemical
[1] = Solubility, EP (European Pharmacopoeia) aliquot addition method; conditions: 25° C., EP method (kinetic solubility)
Method: All samples to be tested were passed through number 180 and number 125 sieves to ensure that they were finely powdered prior to testing, i.e. not less than 95% of sample mass passed through a […] sieve and not more than 40% passed through a 38 μm sieve.
The vial containing the test material and chosen solvent was shaken on a vortex mixer for 1 minute. The vial was placed in a water bath maintained at 25° C.±0.5° C. for 15 minutes. If particles were still remaining, the vial was shaken again for 1 minute using the vortex mixer and returned to the water bath for a further 15 minutes.
Approximately 100 mg of the test material was weighed into a vial and 0.1 mL of the chosen solvent was added. This was treated as described in the procedure above. […] After each addition of solvent the contents of the vial were treated as described in the dissolving procedure. […] After the dissolving procedure was complete, the solubility of the material was visually determined. […] Results obtained were reported.
The solubility of Compound 1 Form I was determined by two different methods. The EP (European Pharmacopoeia) method is an aliquot addition method which gives a rough assessment of kinetic solubility. The equilibrium method requires the suspension of solid for an extended period in the dissolving medium. […]

[2] = Equilibrium solubility in buffer, HPLC
Method: Approximately 25 mg of test substance was weighed into glass test tubes. The relevant volume of buffer solution (10 mL) was added to each vessel. The tests were performed in duplicate. The vessels were lightly sealed and agitated at 25°C. in a shaking thermostatted water bath protected from light. Sampling was performed after 24 hours and thereafter not less than 20 hours between sample time points. Sampling was performed by filtration of a portion of the test slurry through a 0.2 μm filter and dilution in appropriate media for HPLC analysis.
Equilibrium solubility was determined by HPLC by using:
[formula] where the Standard Purity was taken as 95%.
(§1) Buffer pH 7.0 samples were prepared by removing approximately 1 mL of the solution from the appropriate glass test tube and filtering into a HPLC vial using a PTFE 0.2 μm syringe filter. The concentration of the Compound 1 in the filtrate was determined by comparison with data of the standard sample (about 0.25 mg/g).
as §1, with “5.0” for “7.0”, “The filtered solution was diluted by a factor of 5 and approximately 1 mL of this solution was added into a HPLC vial for analysis. The” for “The”
At the end of the solubility study, the solids were isolated from the experimental slurries, filtered, dried and analyzed by XRPD in order to determine the physical form.
The solubility of Compound 1 Form I was determined by two different methods. The EP (European Pharmacopoeia) method is an aliquot addition method which gives a rough assessment of kinetic solubility. The equilibrium method requires the suspension of solid for an extended period in the dissolving medium. […] The EP method indicated solubility of Compound 1 Form I to be insoluble in water and be soluble in ethanol at 33-100 mg/ml.
The concentration of the samples was assessed by HPLC.

[3] = Intrinsic dissolution rate (IDR); conditions: pH 5.0 USP buffer, 37° C., 50 RPM; Form I from one non capped pellet
Method: For intrinsic dissolution studies (IDR) an isocratic HPLC method with a shorter run time (10 mins) was used due to the high number of sample analyses required (Table 2).
Distek 8 mm intrinsic dissolution apparatus was used for the study. The three fixed screws on the surface plate were inserted through the three holes on the die and fastened with the supplied washers and nuts. 100 mg of test material was placed in the die cavity. The punch was inserted into the cavity and compressed, with the aid of a bench top hydraulic press for 30 sec at 1 ton pressure. The surface plate was disconnected from the die to expose a compact pellet of 0.5 cm^2 surface area. The pellets were checked for any breaks and cracks on the surface. Only the pellets with flat even surface with no irregularities were used for the study. The Viton gasket was placed around the threaded shoulder of the die and a polypropylene cap was screwed on to the threads. The assembly was immersed, pellet side up, into the bottom of the dissolution vessel (flat bottom) containing dissolution medium at 37° C. The media is degassed under helium purge for 15 min prior to use.
• Dissolution media: pH 5.0 USP buffer • Vessel volume: 900 mL • Rotation speed: 50 RPM • Temperature: 37° C.±0.5° C. • Sampling time points: 30, 60, 90, 120 and 150 mins • Sample size: 1 mL • Sample analysis: By HPLC (conditions in Table 2 above)
Three samples of Form I, II, III and trihydrate were checked for IDR in USP pH 5.0 buffer. The samples were checked for any changes in their surface after dropping into the dissolution medium. […] The particles relax on contact with water during dissolution, causing capping of the surface. So IDR was calculated for Form I based on drug release from one non capped pellet. […] The samples were collected manually through a cannula fitted with 10 μm inline filters. The samples collected from dissolution run were analyzed by HPLC.
The average of all three runs was used to plot and calculate the IDR of samples, with the exception of Form I. The average dissolution profile for each Form is shown in FIG. 12.
After the dissolution test, the remaining portion of the pressed discs were dried in air and examined by XRPD.

[4] = Dynamic vapour sorption (DVS) hygroscopicity
Method: Dynamic Vapour Sorption (DVS) was performed using a Hiden Analytical Instruments IGAsorp Vapour Sorption Balance. Approximately 15 mg of sample was placed into a wire-mesh vapour sorption balance pan, loaded into the IGAsorp vapour sorption balance and held at 25° C.±0.1° C. The sample was subjected to a step profile from 0 to 90% RH at 10% increments, followed by desorption from […] to 0% RH at 10% increments. The equilibrium criterion was set to 99.5% step completion within a minimum of 60 minutes and a maximum of 10 hours for each increment. The weight change during the sorption cycle was monitored, allowing for the hygroscopic nature of the sample to be determined. The data collection interval was in seconds.
DVS analysis was used to investigate the hygroscopicity of Compound 1 Form I (FIG. 11). […] The overall weight gain up to 95% RH was 0.06% and weight gained up to 80% RH only 0.08%.
After completion of the cycle, the sample was removed from the instrument and no weight change was observed.

[5] = Interconversion experiments in ethyl acetate suspension (thermodynamic stability of forms), XRPD; conditions: for temperature range in which the form is the most stable polymorph (Form I/II transition): from interconversion experiments at 5, 10, 15, 21 & 60° C.
Method: Interconversion experiments were carried out using Forms I, II and III at 5° C., 10° C., 15° C., 21° C. and 60° C. in ethyl acetate. Suspensions of approximately equivalent amounts (about 75 mg) of each form in ethyl acetate (1.2 mL) were prepared and agitated at different temperatures. The slurries were stirred and sampled periodically (200 μL aliquot) after 30 mins and over the period of 10 days or until when near complete or complete conversion had occurred. The sampled aliquot was filtered, air dried and analyzed by XRPD.
In solvent mediated conversions, seeds of all Forms are present and there is no activation energy barrier to interconversion. This technique is used to identify the ‘true’ transition temperature and the thermodynamic relationship between the Forms. In order to determine the order of stability between each individual form interconversion experiments were performed using suspensions of pairs of each form in ethyl acetate at 5, 10 and 15° C. and suspensions of all Forms together at 21° C. and 60° C. The stirred suspensions of Forms I, II and III were sampled after 0.5 hr (t0), after 1, 2 and 3 days (t1-3) and 6 and 10 days if required.

[6] = Critical water activity for trihydrate formation in acetone/water; conditions: 21° C.
Method: Experiments to determine the critical water activity level with respect to trihydrate formation were performed in acetone/water. Different % v/v ratios of water in acetone were used for suspensions at 21° C. […] Using the Wilson VLE model, this equates to 0.38-0.49 or 0.35-0.44 using the UNIFAC model. This provides useful information for process chemists and formulators in later development.

solubility at 15 min ([1]; organic solvent or mixture, ethanol): 33 to 100 mg/mL (≈ 74.6 to 226 mM)
solubility in water (EP method) ([1]; water): insoluble
MEAN SOLUBILITY pH 5.1 ([2]; day 1, buffer pH 5.1, 25°C): 1.101 MG/G
MEAN SOLUBILITY pH 7.0 ([2]; day 1, buffer pH 7.0, 25°C): 0.074 MG/G
MEAN SOLUBILITY pH 5.1 ([2]; day 2, buffer pH 5.1, 25°C): 0.735 MG/G
MEAN SOLUBILITY pH 7.0 ([2]; day 2, buffer pH 7.0, 25°C): 0.043 MG/G
MEAN SOLUBILITY pH 5.1 ([2]; day 3, buffer pH 5.1, 25°C): 0.587 MG/G
MEAN SOLUBILITY pH 7.0 ([2]; day 3, buffer pH 7.0, 25°C): 0.031 MG/G
MEAN SOLUBILITY pH 5.1 ([2]; day 4, buffer pH 5.1, 25°C): 0.507 MG/G
MEAN SOLUBILITY pH 7.0 ([2]; day 4, buffer pH 7.0, 25°C): 0.025 MG/G
IDR [3]: 0.101 mg cm^−2 min^−1
weight gained up to 80% RH ([4]; DVS, 25° C., up to 80% RH): 0.08%
overall weight gain up to 95% RH ([4]; DVS, 25° C., up to 95% RH): 0.06%
hygroscopicity classification (European Pharmacopoeia) ([4]; weight increase at 80% RH (25° C.)): non-hygroscopic
thermodynamically most stable form ([5]; 21° C., ethyl acetate suspension of Forms I, II and III): thermodynamically most stable form
thermodynamically most stable form ([5]; 60° C., ethyl acetate suspension of Forms I, II and III): thermodynamically most stable form
temperature range in which the form is the most stable polymorph (Form I/II transition) [5]: above 18±2 °C
Compound: CN(C)c1cc2c(cc1Sc1nc3c(N)nccc3n1CCNCC(C)(C)C)OCO2 [Compound 1 Form I]

IDR [3]: 0.266 mg cm^−2 min^−1
Compound: CN(C)c1cc2c(cc1Sc1nc3c(N)nccc3n1CCNCC(C)(C)C)OCO2 [Form III]

IDR [3]: 0.098 mg cm^−2 min^−1
thermodynamically most stable form ([5]; 5° C., ethyl acetate suspension of pairs of forms): thermodynamically most stable form
thermodynamically most stable form ([5]; 10° C., ethyl acetate suspension of pairs of forms): thermodynamically most stable form
thermodynamically most stable form ([5]; 15° C., ethyl acetate suspension of pairs of forms): thermodynamically most stable form
temperature range in which the form is the most stable polymorph (Form I/II transition) [5]: lower than 18±2 °C
Compound: CN(C)c1cc2c(cc1Sc1nc3c(N)nccc3n1CCNCC(C)(C)C)OCO2 [Form II]

IDR [3]: 0.184 mg cm^−2 min^−1
critical water activity, UNIFAC model ([6]; UNIFAC model): 0.35-0.44
critical water activity, Wilson VLE model ([6]; Wilson VLE model): 0.38-0.49
Compound: CN(C)c1cc2c(cc1Sc1nc3c(N)nccc3n1CCNCC(C)(C)C)OCO2 [Trihydrate]
